Assays:
[1] = test system: subject with PCS; test: Neurofeedback evaluation; assay type: in vivo, human; details: following treatment of 4AP
[2] = test system: subject with PCS; test: PCS Symptom Cluster Scale, weighted point system; assay type: in vivo, human; set-up: key to Raw score: Vertigo / Raw score: Persistence or perseveration of proprioceptive sensations (e.g., feeling motion after coming to rest) / Raw score: Diplopia / Raw score: Impairment of gait: 0 never, 1 sometimes, 2 often, 3 always/nearly always present; key to Weighted Score: Vertigo / Weighted Score: Insomnia / Weighted Score: Difficulty in standing for more than 5 minutes: raw frequency score (0-3) multiplied by weight factor; details: after therapy with 4-AP
Description: In one embodiment, a point system is presented in which symptoms from each cluster are further assigned a point value. The evaluation should rate the frequency of each symptom over the span of about one week prior to the assessment, according to the following scale: 0—Never present, 1—Sometimes present, 2—Often present, 3—Always or Nearly always present. In this context, occurrence of a symptom from about 1 to 5 times per week would classify as sometimes present, occurrence from about 5 to about 10 times per week would classify as often present, and occurrence about 10 or more times per week would classify as always or nearly always present. The rating number for each item should be recorded as the raw score. Each raw score should then be multiplied by the weight factor to obtain the weighted score.
To achieve this goal, a point system was applied to discrete symptoms within symptom Clusters to specifically define a class of PCS patient that will be likely to benefit from treatment from 4-AP. According to the weighted point system, symptoms from each cluster are further assigned a point value. The frequency of each symptom over the span of about one week prior to the assessment was rated according to the following scale: 0—Never present, 1—Sometimes present, 2—Often present, 3—Always or Nearly always present. The rating number for each item was recorded as the raw score, and the raw score was then multiplied by the weight factor to obtain the weighted score.

[3] = test system: subject with PCS; test: Neuro-optometric evaluation; assay type: in vivo, human; details: following treatment of 4AP
[4] = test system: subject with PCS; test: Videonystagmography (VNG); assay type: in vivo, human
Procedure: A single subject, prospective, double blind, placebo controlled trial of 4AP was then conducted in this individual. IRB approvals were obtained from all participating institutions and Subject gave written informed consent for all parts of the study. After a 4-week medication washout period, the Subject was randomly assigned a week's course of placebo, followed by a weeklong medication washout period, followed by another week on 4-AP (10 mg twice daily). Based on the medication half-life, a one week washout period was presumed to be sufficient. Subject and assessors were blinded to treatment allocation.
Measurements conducted at identical times at baseline and on each of the subsequent 3 weeks of the study included: • Balance and mobility assessed by Hi-Mat test (Arch. Phys. Med. Rehabil. 2006, 87(3), 437-442; hereby incorporated by reference in its entirety). • Subjective symptom assessment using the Rivermead Post-Concussion Questionnaire (Clin. Rehabil. 2005, 19(8), 878-887; hereby incorporated by reference in its entirety). • Neuropsychological assessment, consisting of the digit span and cancellation tests from the Wechsler Adult Intelligence Scale, 4th edition (Coalson, D. L., Engi-Raiford, S. Wechsler Adult Intelligence Scale, 4th Ed., in Technical and Interpretive Manual, 4th Ed., San Antonio: Pearson (2008); hereby incorporated by reference in its entirety), the California Verbal Learning Test II (CVLT) (Delis, D. C., Kramer, J. H., Kaplan, E., Ober, B. A. in CVLT-II Manual, San Antonio: The Psychological Corporation (2000); hereby incorporated by reference in its entirety), the Verbal Fluency Test (Connors Continuous Performance Test Computer II Program Version 5 Users Manual, Toronto: Multi-Health Systems, Inc. (2002); hereby incorporated by reference in its entirety), and the Connors Continuous Performance Test (J. Nervous Ment. Dis. 1985, 173(6), 353-357; hereby incorporated by reference in its entirety). • Videonystagmography (VNG) and rotary chair (RC) vestibular testing
Based on the observation of significant central findings on videonystagmography and rater-observed reduction in abnormal movements while on the active medication, the Subject was asked to return for 2 additional rounds of open-label testing, 5 and 9 weeks after conclusion of the formal study. The Subject resumed taking 4AP 10 mg twice daily immediately after the conclusion of the blinded testing.

[5] = test system: multiple sclerosis patients; details: orally administered, over a period of days, literature; cited from earlier work
[6] = Cluster A, raw score x weight 1, prior to therapy 3
[7] = Cluster A, raw score x weight 3, prior to therapy 6
[8] = Cluster B, raw score x weight 4, prior to therapy 8
[9] = Cluster C, raw score x weight 2, prior to therapy 2
[10] = Cluster C, raw score x weight 3, prior to therapy 9

Structure (SMILES): Nc1ccncc1 [4-AP, 4-Amino pyridine]
- Neurofeedback parameters (neurosynchronization, restoration of brain activity) [1]: dramatic and unexpected improvements
- Raw score: Difficulty in standing for more than 5 minutes ([2]; Cluster A, prior to therapy 0): 0
- Raw score: Difficulty moving body position (e.g., from chair to bed or toilet) ([2]; Cluster A, prior to therapy 1): 0
- Raw score: Difficulty maintaining balance while looking over shoulder ([2]; Cluster A, prior to therapy 2): 0
- Raw score: Difficulty rising unaided from a sitting position or from sitting on the floor ([2]; Cluster A, prior to therapy 2): 0
- Raw score: Impairment of gait ([2]; Cluster A, prior to therapy 2): 0
- Raw score: Inability to maintain stability while standing with eyes closed or with feet together ([2]; Cluster A, prior to therapy 2): 1 (Sometimes present)
- Raw score: Difficulty conversing while walking ([2]; Cluster A, prior to therapy 3): 1 (Sometimes present)
- Raw score: Difficulty tossing objects from hand to hand while walking ([2]; Cluster A, prior to therapy 3): 1 (Sometimes present)
- Raw score: Inability to maintain heel-to-toe gait ([2]; Cluster A, prior to therapy 3): 1 (Sometimes present)
- Weighted Score: Difficulty moving body position (e.g., from chair to bed or toilet) ([2]; Cluster A, raw score x weight 1, prior to therapy 1): 0
- Weighted Score: Difficulty rising unaided from a sitting position or from sitting on the floor ([2]; Cluster A, raw score x weight 1, prior to therapy 2): 0
- Weighted Score: Difficulty tossing objects from hand to hand while walking [2, 6]: 1
- Weighted Score: Inability to maintain heel-to-toe gait [2, 6]: 1
- Weighted Score: Difficulty in standing for more than 5 minutes ([2]; Cluster A, raw score x weight 2, prior to therapy 0): 0
- Weighted Score: Difficulty maintaining balance while looking over shoulder ([2]; Cluster A, raw score x weight 2, prior to therapy 4): 0
- Weighted Score: Impairment of gait [2, 7]: 0
- Weighted Score: Inability to maintain stability while standing with eyes closed or with feet together [2, 7]: 3
- Weighted Score: Difficulty conversing while walking ([2]; Cluster A, raw score x weight 3, prior to therapy 9): 3
- Raw score: Oscillopsia (perception of stationary objects moving) ([2]; Cluster B, prior to therapy 2): 0
- Raw score: Persistence or perseveration of proprioceptive sensations (e.g., feeling motion after coming to rest) ([2]; Cluster B, prior to therapy 2): 0
- Raw score: Persistent sensation of walking on soft or moving surface ([2]; Cluster B, prior to therapy 2): 0
- Raw score: Vertigo ([2]; Cluster B, prior to therapy 2): 0
- Raw score: Vestibular seizures ([2]; Cluster B, prior to therapy 2): 0
- Raw score: Persistent sensation of being off-balance or tilted ([2]; Cluster B, prior to therapy 3): 1 (Sometimes present)
- Weighted Score: Vertigo ([2]; Cluster B, raw score x weight 2, prior to therapy 6): 0
- Weighted Score: Persistent sensation of walking on soft or moving surface ([2]; Cluster B, raw score x weight 3, prior to therapy 6): 0
- Weighted Score: Oscillopsia (perception of stationary objects moving) [2, 8]: 0
- Weighted Score: Persistence or perseveration of proprioceptive sensations (e.g., feeling motion after coming to rest) [2, 8]: 0
- Weighted Score: Persistent sensation of being off-balance or tilted ([2]; Cluster B, raw score x weight 4, prior to therapy 12): 4
- Weighted Score: Vestibular seizures ([2]; Cluster B, raw score x weight 5, prior to therapy 10): 0
- Raw score: Apathy, listlessness, blunting of affect ([2]; Cluster C, prior to therapy 1): 0
- Raw score: Emotional lability or exaggerated emotions ([2]; Cluster C, prior to therapy 1): 0
- Raw score: Persistent or frequent irritability ([2]; Cluster C, prior to therapy 1): 0
- Raw score: Persisting difficulty with registration or retention of newly presented information in any modality ([2]; Cluster C, prior to therapy 2): 1 (Sometimes present)
- Raw score: Inability to perform two simple tasks concurrently (multitasking) ([2]; Cluster C, prior to therapy 3): 1 (Sometimes present)
- Raw score: Inability to tolerate distraction (e.g., inability to complete simple task or resume conversation after interruption) ([2]; Cluster C, prior to therapy 3): 1 (Sometimes present)
- Raw score: Intolerance of noise, light, or commotion ([2]; Cluster C, prior to therapy 3): 1 (Sometimes present)
- Raw score: Slowed speed of mental processing or responding ([2]; Cluster C, prior to therapy 3): 0
- Weighted Score: Apathy, listlessness, blunting of affect [2, 9]: 0
- Weighted Score: Emotional lability or exaggerated emotions [2, 9]: 0
- Weighted Score: Persistent or frequent irritability [2, 9]: 0
- Weighted Score: Persisting difficulty with registration or retention of newly presented information in any modality ([2]; Cluster C, raw score x weight 2, prior to therapy 4): 2
- Weighted Score: Slowed speed of mental processing or responding ([2]; Cluster C, raw score x weight 2, prior to therapy 6): 0
- Weighted Score: Inability to perform two simple tasks concurrently (multitasking) [2, 10]: 3
- Weighted Score: Inability to tolerate distraction (e.g., inability to complete simple task or resume conversation after interruption) [2, 10]: 3
- Weighted Score: Intolerance of noise, light, or commotion ([2]; Cluster C, raw score x weight 4, prior to therapy 12): 4
- Raw score: Diplopia ([2]; Cluster D, prior to therapy 0): 0
- Raw score: Headache ([2]; Cluster D, prior to therapy 1): 2 (Often present)
- Raw score: Nystagmus ([2]; Cluster D, prior to therapy 1): 0
- Raw score: Anergy, chronic fatigue, hypersomnia ([2]; Cluster D, prior to therapy 2): 0
- Raw score: Insomnia ([2]; Cluster D, prior to therapy 2): 2 (Often present)
- Raw score: Difficulty in accommodation or focus ([2]; Cluster D, prior to therapy 3): 1 (Sometimes present)
- Raw score: Impairment of tracking an object in motion ([2]; Cluster D, prior to therapy 3): 0
- Weighted Score: Insomnia ([2]; Cluster D, raw score x weight 1, prior to therapy 2): 2
- Weighted Score: Diplopia ([2]; Cluster D, raw score x weight 2, prior to therapy 0): 0
- Weighted Score: Headache ([2]; Cluster D, raw score x weight 2, prior to therapy 2): 4
- Weighted Score: Anergy, chronic fatigue, hypersomnia ([2]; Cluster D, raw score x weight 3, prior to therapy 6): 0
- Weighted Score: Difficulty in accommodation or focus ([2]; Cluster D, raw score x weight 3, prior to therapy 9): 3
- Weighted Score: Nystagmus ([2]; Cluster D, raw score x weight 4, prior to therapy 4): 0
- Weighted Score: Impairment of tracking an object in motion ([2]; Cluster D, raw score x weight 4, prior to therapy 12): 0
- Total weighted score of symptoms ([2]; prior to therapy 165): 33 points
- Overall neuro-optometric functioning [3]: unexpectedly improved
- Head left positioning, left beating non-fatiguing nystagmus ([4]; test 4 (Active, 4-AP 10 mg twice daily), tests 1-3: 6, 2, 2): 4 degrees/second
- Head left position, left beating non-fatiguing nystagmus ([4]; test 5 (1st open-label round, 4AP 10 mg twice daily)): 2 degrees/second
- Delay of onset of left beating nystagmus in left dix hallpike position ([4]; test 6 (2nd open-label round, 4AP 10 mg twice daily), immediate on tests 1-4): 50 s
- Down beating nystagmus with head tilted down ([4]; tests 1-4, including active phase): present
- Restoring nerve impulse transmission [5]: mild to moderate improvements

Reference: patent US20130184316A1, “METHODS FOR DIAGNOSING AND TREATING CONCUSSIVE DISORDERS” (priority 2010, published 2013)
